From patent US8404726B2, “Activating agent for peroxisome proliferator activated receptor δ” (Nippon Chemiphar Co. Ltd., priority 2006, dated 2013)
Blank lines part the entries; values can stand above or below the compound they belong to.

Experiments:
[1] = target: T1, hPPARα (LBD) (Homo sapiens, UniProt Q07869); experiment: PPAR activating function, GAL4-hPPARα (LBD) luciferase reporter transfected into CV-1 cells; format: cell-based; conditions: control GW-590735 10^−6 M = 100%
T1 construct: A receptor expression plasmid (pSG5-GAL4-hPPARα or γ or δ (LBD)); GAL4 (fusion partner); expressed in transfected cells; host or cells: CV-1 cells (ATCC)
T1 sequence (Q07869 239-466 limits assumed): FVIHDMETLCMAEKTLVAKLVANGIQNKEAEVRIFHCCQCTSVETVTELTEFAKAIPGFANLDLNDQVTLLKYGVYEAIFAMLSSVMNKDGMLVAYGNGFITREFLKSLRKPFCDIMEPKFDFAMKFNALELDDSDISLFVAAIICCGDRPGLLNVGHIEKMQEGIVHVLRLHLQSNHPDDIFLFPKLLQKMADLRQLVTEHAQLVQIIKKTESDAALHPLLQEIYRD
Procedure: (§1) The PPAR activating effect of the compound of the invention was determined by the following method:
(§2) A receptor expression plasmid (pSG5-GAL4-hPPARα or γ or δ (LBD)), a luciferase expression plasmid (MH100×4-TK-Luc), and a β-galactosidase expression plasmid (pCMX-β-GAL) are transfected into CV-1 cells (ATCC) (Kliewer, S. A. et al., (1992) Nature, 358: 771-774). After the gene transfer is conducted by utilizing a lipofection reagent (Lipofectamine 2000, Invitrogen), it is incubated for about 40 hours in the presence of a compound to be tested. The luciferase activity and β-GAL activity are measured on the soluble cells.
(§3) The luciferase activity is calibrated by the β-GAL activity. A relative ligand activity is calculated under the condition that the luciferase activity of the cells treated by GW-590735 for PPARα, Rosiglitazone for PPARγ, or GW-501516 for PPARδ is set to 100% to determine EC50 (see the below-mentioned Examples 14 and 15).
(§4) PPAR activating functions of test compounds (compounds of Examples) were measured in the manner described below.
as §2, with “(pUC8-MH100×4-TK-Luc),” for “(MH100×4-TK-Luc),”, “were” for “are”, “was” for “is”
(§5) The luciferase activity was calibrated by the β-GAL activity. A relative ligand activity was calculated under the condition that the luciferase activity of the cells treated by GW-590735 for PPARα, Rosiglitazone for […], or GW-501516 for PPARδ was set to 100% to determine EC50.
(§6) The tests were conducted in the same manner to Example 14 (1).

[2] = target: T2, hPPARγ (LBD) (Homo sapiens, UniProt P37231); experiment: PPAR activating function, GAL4-hPPARγ (LBD) luciferase reporter transfected into CV-1 cells; format: cell-based; conditions: control Rosiglitazone 10^−5 M = 100%
T2 construct: A receptor expression plasmid (pSG5-GAL4-hPPARα or γ or δ (LBD)); GAL4 (fusion partner); expressed in transfected cells; host or cells: CV-1 cells (ATCC)
T2 sequence (P37231 238-503 limits assumed): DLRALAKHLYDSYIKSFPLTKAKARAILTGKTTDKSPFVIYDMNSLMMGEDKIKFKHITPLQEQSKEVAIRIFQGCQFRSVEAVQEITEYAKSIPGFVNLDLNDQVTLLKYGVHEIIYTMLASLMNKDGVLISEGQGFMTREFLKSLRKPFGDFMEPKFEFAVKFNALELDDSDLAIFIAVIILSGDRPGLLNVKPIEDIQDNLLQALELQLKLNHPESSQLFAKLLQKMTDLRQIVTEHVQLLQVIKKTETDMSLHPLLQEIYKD
Procedure: as §1, §2, §3, §4
as §2, with “(pUC8-MH100×4-TK-Luc),” for “(MH100×4-TK-Luc),”, “were” for “are”, “was” for “is”
as §5, §6

[3] = target: T3, hPPARδ (LBD) (Homo sapiens, UniProt Q03181); experiment: PPAR activating function, GAL4-hPPARδ (LBD) luciferase reporter transfected into CV-1 cells; format: cell-based
T3 construct: A receptor expression plasmid (pSG5-GAL4-hPPARα or γ or δ (LBD)); GAL4 (fusion partner); expressed in transfected cells; host or cells: CV-1 cells (ATCC)
T3 sequence (Q03181 211-439 limits assumed): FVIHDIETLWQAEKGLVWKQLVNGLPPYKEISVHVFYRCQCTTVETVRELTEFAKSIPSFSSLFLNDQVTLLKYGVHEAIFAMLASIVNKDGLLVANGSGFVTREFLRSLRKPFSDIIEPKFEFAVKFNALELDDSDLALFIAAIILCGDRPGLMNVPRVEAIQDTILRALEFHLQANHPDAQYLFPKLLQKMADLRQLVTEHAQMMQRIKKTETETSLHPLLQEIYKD
Procedure: as §1, §2, §3, §4
as §2, with “(pUC8-MH100×4-TK-Luc),” for “(MH100×4-TK-Luc),”, “were” for “are”, “was” for “is”
as §5, §6

[4] = 10^−6 M of the test compound (Examples 3 and 8)
[5] = 10^−7M of the test compound, control GW-501516 10^−7 M = 100%, CV-1 cells

PPAR activity PPARα (relative value, control = 100%) [1, 4]: Inactive
PPAR activity PPARγ (relative value, control = 100%) [2, 4]: Inactive
SMILES: Cc1cc(C(=O)CCc2nc(-c3ccccc3)oc2C(C)C)ccc1CCC(=O)O [Example 3, 3-[4-[3-(5-Isopropyl-2-phenyl-4-oxazolyl)propionyl]-2-methylphenyl]propionic acid]

PPAR activity PPARα: relative value (control = 100%) ([1]; 10^−6 M of the test compound): Inactive
PPAR activity PPARδ: relative value (control = 100%) ([3]; 10^−6 M of the test compound, control GW-501516 10^−7 M = 100%, CV-1 cells): 62%
PPAR activity PPARγ: relative value (control = 100%) ([2]; 10^−6 M of the test compound): Inactive
SMILES: Cc1cc(C(=O)CCc2nc(-c3ccccc3O)oc2C(C)C)ccc1CCC(=O)O [Example 13, 3-[4-[3-[5-Isopropyl-2-(2-hydroxyphenyl)-4-oxazolyl]propionyl]-2-methylphenyl]propionic acid]

PPAR activity PPARα (relative value, control = 100%) [1, 4]: Inactive
PPAR activity PPARγ (relative value, control = 100%) [2, 4]: Inactive
SMILES: CC(C)c1nc(-c2ccc(C(F)(F)F)cc2)sc1CCC(=O)c1ccc(NCC(=O)O)cc1 [Example 8, N-[4-[3-[4-Isopropyl-2-[4-(trifluoromethyl)phenyl]thiazol-5-yl]propionyl]phenyl]glycine]

PPAR activity PPARα (relative value, control = 100%) ([1]; 10^−7 M of the test compound): Inactive
agonist function for PPARδ (in words) ([3]; summary of Tables 38 and 39): particularly strong agonist function
PPAR activity PPARγ (relative value, control = 100%) ([2]; 10^−7 M of the test compound): Inactive
SMILES: Cc1cc(C(=O)CCc2sc(-c3ccc(C(F)(F)F)cc3)nc2C(C)C)ccc1CCC(=O)O [Example 5, 3-[4-[3-[4-Isopropyl-2-[4-(trifluoromethyl)phenyl]thiazol-5-yl]propionyl]-2-methylphenyl]propionic acid]

PPAR activity PPARα: relative value (control = 100%) ([1]; 10^−7 M of the test compound): Inactive
melting point: 141 to 144 °C
PPAR activity PPARδ: relative value (control = 100%) [3, 5]: 93%
PPAR activity PPARγ: relative value (control = 100%) ([2]; 10^−7 M of the test compound): Inactive
SMILES: Cc1cc(C(=O)CCc2nc(-c3ccc(Cl)cc3O)oc2C(C)C)ccc1CCC(=O)O [Example 12, 3-[4-[3-[2-(4-Chloro-2-hydroxyphenyl)-5-isopropyl-4-oxazolyl]propionyl]-2-methylphenyl]propionic acid]

PPAR activity PPARα (relative value, control = 100%) ([1]; 10^−7 M of the test compound): Inactive
PPAR activity PPARγ (relative value, control = 100%) ([2]; 10^−7 M of the test compound): Inactive
SMILES: CC(C)c1nc(-c2ccc(C(F)(F)F)cc2)sc1CCC(=O)c1ccc(N(C)CC(=O)O)cc1 [Example 7, N-[4-[3-[4-Isopropyl-2-[4-(trifluoromethyl)phenyl]thiazol-5-yl]propionyl]phenyl]-N-methylglycine]

PPAR activity PPARα (relative value, control = 100%) ([1]; 10^−7 M of the test compound): Inactive
PPAR activity PPARγ (relative value, control = 100%) ([2]; 10^−7 M of the test compound): Inactive
SMILES: CCCCCCc1nc(-c2ccc(C)cc2)sc1CCC(=O)c1ccc(CCC(=O)O)c(C)c1 [Example 1, 3-[4-[3-[4-Hexyl-2-(4-methylphenyl)thiazol-5-yl]propionyl]-2-methylphenyl]propionic acid]

PPAR activity PPARα (relative value, control = 100%) ([1]; 10^−7 M of the test compound): Inactive
PPAR activity PPARγ (relative value, control = 100%) ([2]; 10^−7 M of the test compound): Inactive
SMILES: Cc1cc(C(=O)CCc2sc(-c3ccc(C(F)(F)F)cc3)cc2C(C)C)ccc1CCC(=O)O [Example 2, 3-[4-[3-[3-Isopropyl-5-[4-(trifluoromethyl)phenyl]thiophen-2-yl]propionyl]-2-methylphenyl]propionic acid]

PPAR activity PPARα: relative value (control = 100%) ([1]; 10^−7 M of the test compound): Inactive
PPAR activity PPARδ: relative value (control = 100%) [3, 5]: 89%
PPAR activity PPARγ: relative value (control = 100%) ([2]; 10^−7 M of the test compound): Inactive
SMILES: CCc1cc(C(=O)CCc2sc(-c3ccc(C(F)(F)F)cc3)nc2C(C)C)ccc1CCC(=O)O [Example 11, 3-[4-[3-[4-Isopropyl-2-[4-(trifluoromethyl)phenyl]-5-thiazolyl]propionyl]-2-ethylphenyl]propionic acid]

PPAR activity PPARα (relative value, control = 100%) ([1]; 10^−7 M of the test compound): Inactive
PPAR activity PPARγ (relative value, control = 100%) ([2]; 10^−7 M of the test compound): Inactive
SMILES: C=C(CCc1sc(-c2ccc(C(F)(F)F)cc2)nc1C(C)C)c1ccc(CCC(=O)O)c(C)c1 [Example 6, 3-[4-[1-[2-[4-Isopropyl-2-[4-(trifluoromethyl)phenyl]thiazol-5-yl]ethyl]vinyl]-2-methylphenyl]propionic acid]

SMILES: Cc1cc(C(=O)C=Cc2sc(-c3ccc(C(F)(F)F)cc3)nc2C(C)C)ccc1C=CC(=O)O [Example 4, 3-[4-[3-[4-Isopropyl-2-[4-(trifluoromethyl)phenyl]thiazol-5-yl-]propenoyl]-2-methylphenyl]acrylic acid]
PPAR activity PPARα (relative value, control = 100%) ([1]; 10^−7 M of the test compound): Inactive
PPAR activity PPARδ (relative value, control = 100%) [3, 5]: 22%
PPAR activity PPARγ (relative value, control = 100%) ([2]; 10^−7 M of the test compound): Inactive

PPAR activity PPARα: relative value (control = 100%) ([1]; 10^−7 M of the test compound): Inactive
melting point: 166 to 168 °C
PPAR activity PPARδ: relative value (control = 100%) [3, 5]: 69%
PPAR activity PPARγ: relative value (control = 100%) ([2]; 10^−7 M of the test compound): Inactive
SMILES: CC(C)c1oc(-c2ccc(Cl)cc2O)nc1CCC(=O)c1ccc(N(C)CC(=O)O)cc1 [Example 10, N-[4-[3-[2-(4-chloro-2-hydroxyphenyl)-5-isopropyl-4-oxazolyl]propionyl]phenyl]-N-methylglycine]

PPAR activity PPARα (relative value, control = 100%) ([1]; 10^−7 M of the test compound): Inactive
PPAR activity PPARγ (relative value, control = 100%) ([2]; 10^−7 M of the test compound): Inactive
SMILES: CC(C)c1cc(-c2ccc(C(F)(F)F)cc2)sc1CCC(=O)c1ccc(N(C)CC(=O)O)cc1 [Example 9, N-[4-[3-[3-Isopropyl-5-[4-(trifluoromethyl)phenyl]thiophen-2-yl]propionyl]phenyl]-N-methylglycine]
